Results taken from patent US20240148831A1, “COMBINATION TREATMENTS FOR CHOLESTASIS” (THE BOARD OF REGENTS OF THE UNIVERSITY OF OKLAHOMA, priority 2022, published 2024).

Tests used:
Format in all cases: in vivo
Cyp2c70 KO mice [1] = assay: Liver histopathology, serum transaminases and liver mRNA markers after 4 weeks of treatment in Cyp2c70 KO mice; conditions: female Cyp2c70 KO mice
Description: (§1) The Cyp2c70 KO mice with Exon 4 deletion were generated by CRISPR/Cas-mediated genome engineering. Cas9 and gRNA (gRNA1 matching reverse strand of the Cyp2c70 gene: […] (SEQ ID NO:1); gRNA2 matching forward strand of the Cyp2c70 gene: […] (SEQ ID NO:2)) were co-injected into fertilized eggs of C57BL/6J mice. One F0 male founder mouse was identified by PCR followed by sequencing analysis to confirm deletion of an 888 bp genome region containing the entire Exon 4. This F0 founder was bred to a WT C57BL/6J mouse to obtain 3 F1 Cyp2c70+/−females confirming germline transmission. Further breeding of the F1 females with WT C57BL/6J mice (the Jackson Lab, Bar Harbor, ME) yielded WT mice and Cyp2c70+/−mice. Subsequent breeding of the Cyp2c70+/−offspring yielded WT mice and Cyp2c70−/− mice (Cyp2c70 KO). The Cyp2c70 KO mice were then bred via KO×KO breeding scheme. The WT littermates were used to generate WT mice via WT×WT breeding scheme. […] Mice were housed in micro-isolator cages with Biofresh performance bedding (Pelleted cellulose) under 7 AM-7 PM light cycle and 7 PM-7 AM dark cycle. GSK was mixed with chow diet to achieve an estimated 5 mg/kg/day intake based on 5 g/day food intake by a 25 g mouse. AAV-Null or AAV-FGF15 was injected via tail vein at a dose of 1×10^11 GC/mouse. Mice were euthanized following a 6 h fast from 9 am to 3 pm. Animals received humane care according to the criteria outlined in the “Guide for the Care and Use of Laboratory Animals.” All animal protocols were approved by the Institutional Animal Care and Use Committee of the University of Oklahoma Health Sciences Center.
Liver tissues and colon tissues were fixed in 4% paraformaldehyde and paraffin embedded. Hematoxylin and Eosin (H&E) staining was performed with an automated stainer. Sirius Red staining was performed with Direct Red 80 solution (Sigma #365548, St. Louis, MO). For immunohistochemistry, paraffin embedded tissues were deparaffinized and rehydrated, and after antigen retrieval, […] sections were incubated first with blocking buffer (5% BSA and 5% goat serum in PBS) for 1 h and then blocking buffer containing primary antibodies overnight at 4° C. After washing with PBS, the sections were incubated with secondary antibodies in SignalStain® Boost IHC Detection Reagent (Cell Signaling, #8114, Danvers, MA) for 1 h. Signal was then visualized using a DAB kit (Cell Signaling, #11724, Danvers, MA). The sections were counterstained with Hematoxylin. Images are acquired by using an EVOS M5000 imaging system (ThermoFisher Scientific, Grand Island, NY).
Total liver RNA was purified with Trizol (Sigma-Aldrich, St. Louis, MO). […] 18S was measured and used for normalization. […]

Cyp2c70 KO mice [2] = assay: Bile acid metabolism (fecal total bile acids, bile acid pool, gallbladder bile acid composition, liver CYP7A1/CYP8B1 mRNA) in Cyp2c70 KO mice
Description: as §1
(§2) Bile acids were extracted from liver, whole gallbladder bile, whole small intestine with content, and dried feces in 90% ethanol. To collect fecal sample, an individual mouse was placed in a jar briefly and fresh feces were collected. Total bile acid amount was measured by a bile acid assay kit. Bile acid pool was calculated as the total bile acids in liver, gallbladder and small intestine. Bile acid composition in the gallbladder bile and the pooled fecal extracts was analyzed on a Thermo Scientific UltiMate 3000 UHPLC with a Waters Cortecs C18 column and a TSQ Quantis triple quadrupole mass spectrometer. Standard curves for bile acids and internal standard glycine-CDCA-d4 were generated with purified compounds and relative area under the curve (AUC) was calculated. To measure T-CDCA-d4 metabolism in fecal slurry mixtures, pooled fresh fecal sample from each group was resuspended in a reaction buffer consisting of 10% PBS (pH=7.4) and 90% 3 mM sodium acetate (pH=5.2) to a final suspension of 4 mg fecal sample/ml. T-CDCA-d4 was added to a final concentration of 20 ug/ml and the mixture was incubated at 37° C. for 6 h. An equal amount of methanol was added and the mixture was incubated on ice for 1 h to precipitate protein. After centrifugation, an aliquot of the supernatant was vacuum dried and resuspended in injection buffer (0.1% formic acid, 30% acetonitrile, 70% HPLC water), which was used for LC-MS measurement of bile acids as described above.
Total liver RNA was purified with Trizol (Sigma-Aldrich, St. Louis, MO). Reverse transcription was performed by using Oligo dT primer and SuperScript III reverse transcriptase (ThermoFisher Scientific, Grand Island, NY). Real-time PCR was performed on a Bio-Rad CFX384 Real-time PCR system with iQ SYBR Green Supermix (Bio-Rad, Hercules, CA). 18S was measured and used for normalization. The comparative CT (Ct) method was used to determine the relative mRNA expression with the control group arbitrarily set as “1”.

Cyp2c70 KO mice [3] = assay: Gut barrier integrity (colon H&E and ZO-1 immunohistochemistry) in Cyp2c70 KO mice; conditions: 4 weeks
Description: as §1
Liver tissues and colon tissues were fixed in 4% paraformaldehyde and paraffin embedded. Hematoxylin and Eosin (H&E) staining was performed with an automated stainer. Sirius Red staining was performed with Direct Red 80 solution (Sigma #365548, St. Louis, MO). […]

Cyp2c70 KO mice [4] = assay: Fecal bile acid composition and concentration by LC-MS in Cyp2c70 KO mice; conditions: 4 weeks
Description: as §1, §2

[5] = female Cyp2c70 KO mice, vs untreated mice

## CCCC[C@]1(CC)CS(=O)(=O)c2cc(CNC(CC(=O)O)CC(=O)O)c(OC)cc2[C@@H](c2ccccc2)N1 [GSK, GSK2330672]
Cyp2c70 KO mice [1]; 4 weeks of treatment
  reduction of liver p21 mRNA: did not affect
  serum transaminases (ALT, AST): not altered
Cyp2c70 KO mice [1]; 4 weeks of treatment from 12 weeks of age, F4/80, CK19, H&E stain
  portal inflammation (inflammatory infiltration) and ductular reaction: largely ineffective
Cyp2c70 KO mice [1]; 4 weeks of treatment, Sirius Red stain
  portal fibrosis: largely ineffective
Cyp2c70 KO mice [2]; female Cyp2c70 KO mice, 4 weeks
  hepatic CYP8B1 expression: markedly increased
Cyp2c70 KO mice [2]; female Cyp2c70 KO mice, 4 weeks, untreated printed as −70%
  gallbladder T-CDCA abundance: ~40%
Cyp2c70 KO mice [2]; female Cyp2c70 KO mice, 4 weeks, untreated ~1%
  gallbladder T-DCA abundance: ~30%
Cyp2c70 KO mice [2]; female Cyp2c70 KO mice, 4 weeks, vs untreated
  gallbladder T-CA abundance: without affecting
Cyp2c70 KO mice [2]; female Cyp2c70 KO mice, after 2 weeks treatment
  increase of fecal bile acid loss (excretion): ~2 fold
Cyp2c70 KO mice [2]; female Cyp2c70 KO mice, after 4 weeks of treatment
  reduction of total bile acid pool: ~40%
Cyp2c70 KO mice [2]; male Cyp2c70 KO mice, 4 weeks
  gallbladder T-DCA abundance: increasing
  liver CYP7A1 mRNA expression: induction
  liver CYP8B1 mRNA expression: induction
Cyp2c70 KO mice [2]; male Cyp2c70 KO mice, after 2 weeks of treatment
  fecal bile acid excretion: increased
Cyp2c70 KO mice [2]; male Cyp2c70 KO mice, after 4 weeks of treatment
  reduction of bile acid pool size: ~60%
Cyp2c70 KO mice [3]; female Cyp2c70 KO mice
  colon ZO-1 level (immunohistochemistry): failed to restore
Cyp2c70 KO mice [3]; male Cyp2c70 KO mice
  colon ZO-1 level (immunohistochemistry): failed to restore
Cyp2c70 KO mice [3]; male and female Cyp2c70 KO mice
  histological features of the colon epithelium (H&E): did not reveal abnormal histological features
Cyp2c70 KO mice [4]; female Cyp2c70 KO mice
  fecal DCA abundance (relative): increased
Cyp2c70 KO mice [4]; female Cyp2c70 KO mice, untreated ~90% LCA
  fecal LCA abundance (relative): slightly reduced
Cyp2c70 KO mice [4]; [5]
  fecal DCA amount (absolute): higher
  fecal LCA amount (absolute): higher
Cyp2c70 KO mice [4]; male Cyp2c70 KO mice
  fecal DCA amount: increased
  fecal LCA amount: did not increase
